Data: ChEMBL document CHEMBL1201862, “PubChem BioAssay data set” (2004)
Calls of active or inactive are those of the source.

What was measured:
[1] = biological target: T1, DNA repair and recombination protein RAD54-like (Homo sapiens, UniProt Q92698); experiment: inhibitors of human RAD54 branch migration, confirmation, biochemical, fluorescence, cherry-picked samples, dose series (AID 651657); assay type: functional
T1 sequence (Q92698 whole entry): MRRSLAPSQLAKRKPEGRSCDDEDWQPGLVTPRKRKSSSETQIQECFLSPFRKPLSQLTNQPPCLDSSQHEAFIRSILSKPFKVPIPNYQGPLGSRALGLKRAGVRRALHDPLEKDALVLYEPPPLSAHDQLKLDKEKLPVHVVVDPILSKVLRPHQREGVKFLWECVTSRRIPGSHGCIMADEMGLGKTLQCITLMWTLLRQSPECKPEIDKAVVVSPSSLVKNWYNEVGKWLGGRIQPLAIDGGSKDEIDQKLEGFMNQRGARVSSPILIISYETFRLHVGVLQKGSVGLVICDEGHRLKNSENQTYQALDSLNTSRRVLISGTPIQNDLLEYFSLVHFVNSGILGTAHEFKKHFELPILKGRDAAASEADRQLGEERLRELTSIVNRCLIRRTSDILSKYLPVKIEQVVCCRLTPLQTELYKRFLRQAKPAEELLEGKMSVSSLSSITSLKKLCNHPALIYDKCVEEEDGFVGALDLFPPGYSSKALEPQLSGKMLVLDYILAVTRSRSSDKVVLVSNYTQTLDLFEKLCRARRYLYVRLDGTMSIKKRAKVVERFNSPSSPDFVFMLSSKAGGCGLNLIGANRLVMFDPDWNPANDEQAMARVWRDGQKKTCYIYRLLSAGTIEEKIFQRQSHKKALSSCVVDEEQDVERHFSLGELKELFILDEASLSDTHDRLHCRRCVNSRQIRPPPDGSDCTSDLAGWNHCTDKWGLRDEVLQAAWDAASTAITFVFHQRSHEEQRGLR

[2] = biological target: T2, Ubiquitin-conjugating enzyme E2 N (Homo sapiens, UniProt P61088); assay type: functional;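 further: Dose-response confirmation in a TR-FRET assay detecting UBC13-driven polyubiquitin chain formation, inhibition measured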
T2 sequence (P61088 whole entry): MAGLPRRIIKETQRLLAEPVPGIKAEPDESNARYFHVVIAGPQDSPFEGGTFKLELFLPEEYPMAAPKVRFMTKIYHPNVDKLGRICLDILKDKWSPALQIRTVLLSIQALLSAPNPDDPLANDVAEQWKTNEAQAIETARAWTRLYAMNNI

[3] = biological target: T3, DNA repair protein RAD52 homolog (Homo sapiens, UniProt P43351); assay type: functional, biochemical
T3 sequence (P43351 whole entry): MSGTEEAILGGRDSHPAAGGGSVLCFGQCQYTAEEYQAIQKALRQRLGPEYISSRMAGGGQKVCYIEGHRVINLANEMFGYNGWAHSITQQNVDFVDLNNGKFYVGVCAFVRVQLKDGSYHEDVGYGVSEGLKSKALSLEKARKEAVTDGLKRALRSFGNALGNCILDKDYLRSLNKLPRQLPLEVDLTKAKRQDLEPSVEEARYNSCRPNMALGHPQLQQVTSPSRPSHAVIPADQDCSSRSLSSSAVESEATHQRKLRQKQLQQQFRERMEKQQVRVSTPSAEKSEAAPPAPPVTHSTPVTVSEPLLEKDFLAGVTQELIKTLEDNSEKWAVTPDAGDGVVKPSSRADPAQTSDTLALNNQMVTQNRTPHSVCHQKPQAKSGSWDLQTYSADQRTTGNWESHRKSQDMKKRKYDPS

[4] = biological target: T4, Fatty acid synthase (Homo sapiens, UniProt P49327); experiment: FAS thioesterase domain inhibitors, dose response, biochemical, kinetic fluorescence intensity (AID 624326); assay type: functional;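 further: rate of fluorescence rise from hydrolysis of a fluorogenic O-methyl fluorescein ester substrate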
T4 sequence (P49327 whole entry, the tested form may be a part): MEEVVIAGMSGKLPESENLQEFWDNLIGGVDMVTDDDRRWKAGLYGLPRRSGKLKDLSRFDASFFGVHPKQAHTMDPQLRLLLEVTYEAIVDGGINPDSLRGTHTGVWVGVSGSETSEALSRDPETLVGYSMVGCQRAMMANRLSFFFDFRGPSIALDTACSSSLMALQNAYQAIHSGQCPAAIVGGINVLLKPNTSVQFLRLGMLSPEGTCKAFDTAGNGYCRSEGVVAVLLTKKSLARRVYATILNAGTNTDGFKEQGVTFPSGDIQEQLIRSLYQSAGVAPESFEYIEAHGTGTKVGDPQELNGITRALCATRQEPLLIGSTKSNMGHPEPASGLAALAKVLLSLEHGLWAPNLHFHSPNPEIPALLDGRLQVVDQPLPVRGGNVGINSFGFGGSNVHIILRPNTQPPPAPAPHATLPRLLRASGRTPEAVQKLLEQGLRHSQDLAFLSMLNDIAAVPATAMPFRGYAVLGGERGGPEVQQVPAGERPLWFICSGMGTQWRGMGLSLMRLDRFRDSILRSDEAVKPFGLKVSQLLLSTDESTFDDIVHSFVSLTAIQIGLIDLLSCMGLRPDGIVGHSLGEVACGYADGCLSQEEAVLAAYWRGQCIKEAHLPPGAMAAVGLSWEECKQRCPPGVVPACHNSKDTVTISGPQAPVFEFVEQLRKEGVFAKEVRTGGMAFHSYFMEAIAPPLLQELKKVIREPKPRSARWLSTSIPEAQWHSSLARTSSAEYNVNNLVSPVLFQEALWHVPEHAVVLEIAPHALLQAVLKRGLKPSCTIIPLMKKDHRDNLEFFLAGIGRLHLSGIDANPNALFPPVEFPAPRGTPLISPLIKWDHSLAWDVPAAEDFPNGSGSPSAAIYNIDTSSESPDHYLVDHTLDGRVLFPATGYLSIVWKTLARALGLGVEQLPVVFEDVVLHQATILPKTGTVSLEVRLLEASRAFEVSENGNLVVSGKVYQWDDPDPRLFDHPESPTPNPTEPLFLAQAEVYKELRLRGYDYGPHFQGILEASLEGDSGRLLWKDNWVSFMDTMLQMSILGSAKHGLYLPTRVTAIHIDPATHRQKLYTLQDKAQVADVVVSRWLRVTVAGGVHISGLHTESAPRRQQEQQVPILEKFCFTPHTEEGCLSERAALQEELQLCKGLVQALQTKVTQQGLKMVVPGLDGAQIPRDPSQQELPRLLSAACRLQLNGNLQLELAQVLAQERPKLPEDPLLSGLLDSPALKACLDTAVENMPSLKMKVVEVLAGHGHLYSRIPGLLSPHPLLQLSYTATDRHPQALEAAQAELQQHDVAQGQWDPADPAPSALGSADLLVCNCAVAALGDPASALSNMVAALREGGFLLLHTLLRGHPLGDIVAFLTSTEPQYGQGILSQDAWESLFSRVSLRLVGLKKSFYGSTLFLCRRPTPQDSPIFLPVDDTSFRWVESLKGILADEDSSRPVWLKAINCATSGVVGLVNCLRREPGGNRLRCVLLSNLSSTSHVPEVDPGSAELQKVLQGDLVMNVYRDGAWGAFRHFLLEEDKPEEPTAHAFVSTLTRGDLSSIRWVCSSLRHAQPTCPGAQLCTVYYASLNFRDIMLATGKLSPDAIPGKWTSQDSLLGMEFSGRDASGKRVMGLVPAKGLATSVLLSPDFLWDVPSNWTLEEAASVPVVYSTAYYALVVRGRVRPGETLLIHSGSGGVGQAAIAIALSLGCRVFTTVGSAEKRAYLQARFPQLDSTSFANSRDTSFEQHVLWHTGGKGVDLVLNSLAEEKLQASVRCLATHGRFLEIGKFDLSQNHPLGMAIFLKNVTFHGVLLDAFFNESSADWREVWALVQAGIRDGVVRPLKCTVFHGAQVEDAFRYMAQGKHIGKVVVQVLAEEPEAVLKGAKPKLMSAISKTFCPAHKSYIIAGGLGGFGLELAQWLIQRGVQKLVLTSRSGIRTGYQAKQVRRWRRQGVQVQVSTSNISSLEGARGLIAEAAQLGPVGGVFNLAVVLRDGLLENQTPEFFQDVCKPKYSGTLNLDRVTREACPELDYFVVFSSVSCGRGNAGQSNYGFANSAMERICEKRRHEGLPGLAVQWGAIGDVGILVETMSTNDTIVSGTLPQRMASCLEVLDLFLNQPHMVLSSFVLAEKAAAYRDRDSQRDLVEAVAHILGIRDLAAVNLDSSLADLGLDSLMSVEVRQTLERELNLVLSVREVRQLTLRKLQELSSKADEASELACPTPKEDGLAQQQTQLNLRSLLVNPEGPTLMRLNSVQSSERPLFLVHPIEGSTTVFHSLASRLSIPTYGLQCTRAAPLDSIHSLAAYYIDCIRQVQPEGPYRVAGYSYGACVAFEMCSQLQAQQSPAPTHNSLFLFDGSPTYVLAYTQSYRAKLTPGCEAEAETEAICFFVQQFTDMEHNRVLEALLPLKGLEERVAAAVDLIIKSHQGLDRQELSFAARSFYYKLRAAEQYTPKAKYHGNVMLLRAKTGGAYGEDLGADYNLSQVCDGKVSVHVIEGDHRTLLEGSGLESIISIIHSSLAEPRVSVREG

[5] = biological target: T4, Fatty acid synthase; experiment: FAS thioesterase domain inhibitors, dose response, biochemical, endpoint fluorescence intensity, uHTS hits (AID 624327); assay type: functional;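 further: fluorescence from hydrolysis of an O-methyl fluorescein acyl ester substrate by the enzyme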
[6] = biological target: T5, Low molecular weight phosphotyrosine protein phosphatase (Homo sapiens, UniProt P24666); assay type: functional; details: read-out: IC50_Mean
T5 sequence (P24666 whole entry): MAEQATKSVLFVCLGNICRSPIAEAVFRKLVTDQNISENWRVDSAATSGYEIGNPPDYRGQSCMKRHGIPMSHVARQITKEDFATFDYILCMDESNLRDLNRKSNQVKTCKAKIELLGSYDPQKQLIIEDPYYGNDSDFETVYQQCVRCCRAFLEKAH

[7] = biological target: T5, Low molecular weight phosphotyrosine protein phosphatase; assay type: functional; details: read-out: IC50_Mean; remark: listed apart in the source
[8] = biological target: Beta-galactosidase (Escherichia coli, UniProt Q8VNN2); experiment: PubChem AID 485352; assay type: functional
Chain of Beta-galactosidase (Q8VNN2 whole entry): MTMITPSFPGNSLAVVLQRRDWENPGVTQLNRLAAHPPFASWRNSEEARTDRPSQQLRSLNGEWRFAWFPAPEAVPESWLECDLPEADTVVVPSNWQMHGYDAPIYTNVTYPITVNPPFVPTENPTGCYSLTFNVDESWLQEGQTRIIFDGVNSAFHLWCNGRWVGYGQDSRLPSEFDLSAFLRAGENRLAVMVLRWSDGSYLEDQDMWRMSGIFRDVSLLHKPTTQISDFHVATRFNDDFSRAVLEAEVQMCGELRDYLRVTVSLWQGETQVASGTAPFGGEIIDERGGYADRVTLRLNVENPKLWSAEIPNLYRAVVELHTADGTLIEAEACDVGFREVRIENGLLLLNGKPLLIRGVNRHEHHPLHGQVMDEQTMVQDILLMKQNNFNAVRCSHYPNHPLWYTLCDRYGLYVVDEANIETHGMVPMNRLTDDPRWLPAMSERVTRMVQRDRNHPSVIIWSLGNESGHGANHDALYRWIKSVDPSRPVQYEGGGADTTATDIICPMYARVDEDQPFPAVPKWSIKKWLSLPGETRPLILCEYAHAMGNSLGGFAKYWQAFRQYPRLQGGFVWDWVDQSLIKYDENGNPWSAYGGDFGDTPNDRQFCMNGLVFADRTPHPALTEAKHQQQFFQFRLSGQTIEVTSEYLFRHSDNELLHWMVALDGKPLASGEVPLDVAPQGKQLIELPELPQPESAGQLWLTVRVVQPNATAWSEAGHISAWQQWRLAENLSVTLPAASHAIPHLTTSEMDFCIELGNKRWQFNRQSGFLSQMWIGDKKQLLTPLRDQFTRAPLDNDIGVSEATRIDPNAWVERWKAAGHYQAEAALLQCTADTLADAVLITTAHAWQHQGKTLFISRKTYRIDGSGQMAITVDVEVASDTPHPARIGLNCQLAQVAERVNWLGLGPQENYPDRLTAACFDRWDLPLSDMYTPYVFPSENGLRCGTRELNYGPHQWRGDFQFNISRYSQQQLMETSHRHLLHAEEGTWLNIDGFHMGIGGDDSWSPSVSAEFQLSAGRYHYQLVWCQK

[9] = biological target: T6, Type-1 angiotensin II receptor (Homo sapiens, UniProt P30556); experiment: AT1 receptor antagonists, dose response, selectivity assay for APJ receptor antagonist project, cell-based, uHTS hits (AID 463214); assay type: functional;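 further: antagonist potency against angiotensin II stimulated AT1 response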
T6 sequence (P30556 whole entry): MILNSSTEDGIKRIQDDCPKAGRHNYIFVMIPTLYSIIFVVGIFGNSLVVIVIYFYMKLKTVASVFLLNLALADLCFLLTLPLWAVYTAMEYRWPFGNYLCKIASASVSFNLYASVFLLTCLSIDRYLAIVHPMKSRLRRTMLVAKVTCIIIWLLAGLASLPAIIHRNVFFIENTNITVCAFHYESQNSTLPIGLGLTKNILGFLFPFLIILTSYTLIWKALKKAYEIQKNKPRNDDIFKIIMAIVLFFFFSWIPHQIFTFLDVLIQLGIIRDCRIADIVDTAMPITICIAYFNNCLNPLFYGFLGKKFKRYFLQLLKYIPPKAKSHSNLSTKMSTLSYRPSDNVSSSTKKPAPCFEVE

[10] = biological target: T7, Carboxy-terminal domain RNA polymerase II polypeptide A small phosphatase 1 (Homo sapiens, UniProt Q9GZU7); experiment: inhibitors of CTDSP1, concentration-response testing, biochemical assay, absorbance-based, actives from ultra-high-throughput screening (AID 540297); assay type: functional
T7 sequence (Q9GZU7 whole entry): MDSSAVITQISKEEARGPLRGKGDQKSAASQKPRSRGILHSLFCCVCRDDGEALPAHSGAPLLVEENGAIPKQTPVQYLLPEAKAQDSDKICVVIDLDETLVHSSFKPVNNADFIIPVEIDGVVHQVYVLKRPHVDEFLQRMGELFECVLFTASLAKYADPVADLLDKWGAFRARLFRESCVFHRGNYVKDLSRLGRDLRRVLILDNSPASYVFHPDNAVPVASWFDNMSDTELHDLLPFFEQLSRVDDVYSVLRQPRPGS

[11] = biological target: Genome polyprotein (dengue virus type 2, UniProt P29990); experiment: Dengue-2 NS5 methyltransferase inhibitors, primary screen, biochemical, confirmation dose response (AID 588689); assay type: functional
Chain of Genome polyprotein (P29990 2492-3391 limits assumed): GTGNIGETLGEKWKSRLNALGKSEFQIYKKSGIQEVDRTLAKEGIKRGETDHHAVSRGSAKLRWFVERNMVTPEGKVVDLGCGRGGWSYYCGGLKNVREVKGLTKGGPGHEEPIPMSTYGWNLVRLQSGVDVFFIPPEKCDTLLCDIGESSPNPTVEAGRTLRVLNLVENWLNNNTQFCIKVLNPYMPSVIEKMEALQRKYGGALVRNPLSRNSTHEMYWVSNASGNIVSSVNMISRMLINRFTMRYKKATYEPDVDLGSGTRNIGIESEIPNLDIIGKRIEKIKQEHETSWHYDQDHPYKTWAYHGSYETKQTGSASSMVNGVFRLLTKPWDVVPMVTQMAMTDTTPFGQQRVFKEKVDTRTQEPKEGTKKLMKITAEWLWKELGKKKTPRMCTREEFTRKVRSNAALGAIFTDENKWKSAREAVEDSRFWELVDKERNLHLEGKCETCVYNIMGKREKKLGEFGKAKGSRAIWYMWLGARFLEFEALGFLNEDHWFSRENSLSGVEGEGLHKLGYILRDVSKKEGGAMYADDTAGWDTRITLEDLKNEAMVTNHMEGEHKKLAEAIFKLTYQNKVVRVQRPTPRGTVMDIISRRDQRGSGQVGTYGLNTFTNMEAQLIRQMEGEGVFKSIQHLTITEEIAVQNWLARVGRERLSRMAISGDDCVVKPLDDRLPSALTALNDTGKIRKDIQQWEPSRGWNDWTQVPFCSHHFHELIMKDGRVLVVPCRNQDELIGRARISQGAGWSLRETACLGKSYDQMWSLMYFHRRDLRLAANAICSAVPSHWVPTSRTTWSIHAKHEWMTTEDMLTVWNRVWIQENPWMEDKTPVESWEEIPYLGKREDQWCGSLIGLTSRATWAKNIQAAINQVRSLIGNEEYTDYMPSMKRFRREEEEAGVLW

[12] = biological target: T8, Hepatocyte nuclear factor 4-alpha (Homo sapiens, UniProt P41235); assay type: functional, cell-based;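 further: biochemical luminescence-based dose-response counterscreen measuring inhibition of HNF4 dimerization, run alongside a screen for blockers of ABHD5–perilipin-5 interaction; split luciferase complementation of HNF4 fusion proteins in cell lysate measuring dimerization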
T8 sequence (P41235 whole entry): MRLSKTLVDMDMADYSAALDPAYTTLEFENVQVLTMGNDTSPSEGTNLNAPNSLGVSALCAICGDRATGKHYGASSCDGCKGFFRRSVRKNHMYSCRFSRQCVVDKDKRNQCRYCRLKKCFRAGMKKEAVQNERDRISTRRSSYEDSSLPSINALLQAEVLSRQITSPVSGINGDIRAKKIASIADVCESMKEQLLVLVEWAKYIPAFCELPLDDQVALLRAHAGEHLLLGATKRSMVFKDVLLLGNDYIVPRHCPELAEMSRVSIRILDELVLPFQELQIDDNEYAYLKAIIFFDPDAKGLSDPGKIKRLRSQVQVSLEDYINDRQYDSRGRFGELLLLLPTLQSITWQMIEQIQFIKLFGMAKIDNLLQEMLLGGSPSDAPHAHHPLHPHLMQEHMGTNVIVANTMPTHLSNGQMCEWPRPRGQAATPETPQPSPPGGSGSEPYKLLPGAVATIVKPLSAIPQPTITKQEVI

[13] = miR-122 activators in hepatoma reporter cells, dose response, cell-based, Huh7 psiCHECK-miR122, Renilla luciferase, cherry-picked (AID 651956); assay type: functional;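 further: huh7 hepatoma cells stably carrying a psiCHECK-2 miR-122 sensor plasmid; renilla luciferase signal reporting endogenous miR-122 activity after 48 h compound exposure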
[14] = biological target: T9, Replicative DNA helicase DnaB (Mycobacterium tuberculosis, UniProt P9WMR3); experiment: DnaB intein splicing inhibitors, dose response, biochemical, cell-free fluorescence (AID 449749); assay type: functional
T9 sequence (P9WMR3 whole entry): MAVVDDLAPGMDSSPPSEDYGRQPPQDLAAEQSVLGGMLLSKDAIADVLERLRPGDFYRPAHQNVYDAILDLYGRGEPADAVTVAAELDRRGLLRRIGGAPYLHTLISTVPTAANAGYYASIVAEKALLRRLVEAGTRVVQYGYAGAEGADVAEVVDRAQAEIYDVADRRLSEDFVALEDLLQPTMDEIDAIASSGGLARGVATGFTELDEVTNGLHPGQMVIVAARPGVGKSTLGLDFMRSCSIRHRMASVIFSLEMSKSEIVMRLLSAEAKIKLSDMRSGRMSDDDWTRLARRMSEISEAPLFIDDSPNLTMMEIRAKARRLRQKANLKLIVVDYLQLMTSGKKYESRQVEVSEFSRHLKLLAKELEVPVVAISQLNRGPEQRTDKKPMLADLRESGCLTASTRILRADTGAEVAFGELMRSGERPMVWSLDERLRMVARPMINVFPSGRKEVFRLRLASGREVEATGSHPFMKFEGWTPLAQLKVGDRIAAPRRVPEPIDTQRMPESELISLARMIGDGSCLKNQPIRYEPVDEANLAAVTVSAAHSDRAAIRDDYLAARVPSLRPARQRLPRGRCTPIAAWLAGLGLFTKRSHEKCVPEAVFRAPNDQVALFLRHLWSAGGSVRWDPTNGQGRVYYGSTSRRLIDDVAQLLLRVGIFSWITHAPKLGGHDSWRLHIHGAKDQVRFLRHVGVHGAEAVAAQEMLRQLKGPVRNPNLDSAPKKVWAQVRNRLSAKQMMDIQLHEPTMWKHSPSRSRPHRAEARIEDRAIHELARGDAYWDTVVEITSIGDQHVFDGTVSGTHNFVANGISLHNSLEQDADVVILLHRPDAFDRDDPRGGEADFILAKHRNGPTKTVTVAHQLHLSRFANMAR

[15] = Luminescence Cell-Based Dose Retest to Confirm Inhibitors of Cancer Stem Cells. [Related pubchem assays (depositor defined):AID2717, AID2721]; assay type: functional; details: Homo sapiens
[16] = biological target: Cytochrome P450 2C9 (Homo sapiens, UniProt P11712)
Chain of Cytochrome P450 2C9 (P11712 whole entry): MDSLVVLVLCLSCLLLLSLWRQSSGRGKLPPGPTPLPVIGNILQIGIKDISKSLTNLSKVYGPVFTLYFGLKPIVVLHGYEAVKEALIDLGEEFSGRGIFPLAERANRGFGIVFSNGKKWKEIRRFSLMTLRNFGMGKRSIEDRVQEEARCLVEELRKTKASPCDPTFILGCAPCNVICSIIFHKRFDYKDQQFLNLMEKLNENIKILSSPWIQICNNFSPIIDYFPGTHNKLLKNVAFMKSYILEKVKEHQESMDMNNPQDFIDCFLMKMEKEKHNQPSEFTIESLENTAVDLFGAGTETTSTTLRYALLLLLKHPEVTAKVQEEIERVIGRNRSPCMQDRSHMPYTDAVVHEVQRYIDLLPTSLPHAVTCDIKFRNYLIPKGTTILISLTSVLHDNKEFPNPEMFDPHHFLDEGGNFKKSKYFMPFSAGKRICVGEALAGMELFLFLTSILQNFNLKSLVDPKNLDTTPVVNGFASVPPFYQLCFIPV

[17] = biological target: T10, Protein RecA (Mycobacterium tuberculosis, UniProt P9WHJ3); experiment: Fluorescence Cell-Free Homogeneous Dose Retest to Identify Inhibitors of RecA-Intein Splicing Activity. [Related pubchem assays (depositor defined):AID2097, AID2223, AID489010, AID492950]; assay type: functional
T10 sequence (P9WHJ3 whole entry): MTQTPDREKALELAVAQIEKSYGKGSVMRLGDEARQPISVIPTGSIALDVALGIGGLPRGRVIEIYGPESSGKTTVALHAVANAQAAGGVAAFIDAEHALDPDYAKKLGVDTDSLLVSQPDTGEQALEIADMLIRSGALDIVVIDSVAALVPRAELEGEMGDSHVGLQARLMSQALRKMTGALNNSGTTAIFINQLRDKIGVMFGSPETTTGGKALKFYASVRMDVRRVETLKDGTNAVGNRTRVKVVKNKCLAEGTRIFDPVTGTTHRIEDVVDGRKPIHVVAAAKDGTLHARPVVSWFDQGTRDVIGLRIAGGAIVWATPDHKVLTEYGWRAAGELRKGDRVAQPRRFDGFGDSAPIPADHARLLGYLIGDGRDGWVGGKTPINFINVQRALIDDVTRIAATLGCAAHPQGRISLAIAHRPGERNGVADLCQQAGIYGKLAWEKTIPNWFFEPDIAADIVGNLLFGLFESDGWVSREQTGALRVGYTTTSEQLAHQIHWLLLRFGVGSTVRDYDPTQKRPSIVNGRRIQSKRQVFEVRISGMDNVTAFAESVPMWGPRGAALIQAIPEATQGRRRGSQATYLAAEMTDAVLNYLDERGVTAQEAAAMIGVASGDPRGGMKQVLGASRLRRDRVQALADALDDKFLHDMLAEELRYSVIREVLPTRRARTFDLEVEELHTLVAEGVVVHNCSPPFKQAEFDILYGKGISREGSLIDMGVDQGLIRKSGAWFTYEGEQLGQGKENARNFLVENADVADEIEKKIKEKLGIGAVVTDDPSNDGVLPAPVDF

CCN(CC)Cc1cc2[nH]c3c4ccc(Cl)cc4ncc3c2cc1OC
AC50 [1]: 14.6 µM (active)
IC50 [2]: > 20 µM (inactive)
AC50 [3]: 3.1 µM (active)

CCCN(CC(=O)Nc1ccc(F)c(F)c1F)C(=O)c1cc([N+](=O)[O-])ccc1N1CCOCC1
IC50 [4]: 10.6 µM (active)
IC50 [5]: 14.9 µM (active)

O=C(O)CCCCCNc1nc(-c2ccccc2)nc2ccccc12
IC50 [6]: 26.9 µM (inactive)
IC50 [7]: 12 µM (active)

COc1ccc(/C=C/C(=O)NC(=S)Nc2cc([N+](=O)[O-])ccc2O)cc1OC
IC50 [6]: > 80 µM (inactive)
EC50 [8]: > 40 µM (inactive)
IC50 [9]: > 40 µM (not active)
IC50 [10]: 4.85 µM (active)
IC50 [7]: 17.8 µM (active)

O=C1NC(=S)NC(=O)C12C(c1ccccc1)NC(=S)NC2c1ccccc1 (centres undefined)
IC50 [11]: 69.4 µM (active)
IC50 [12]: 5.81 µM (active)

O=C(c1ccc(CNc2c(NC3CCCCC3)c(=O)c2=O)cc1)N1CCc2ccccc21
AC50 [13]: 0.583 µM (active)

COc1ccc(C(C(=O)NC2CCCCC2)n2c(=O)c(-c3ccco3)nc3ccccc32)cc1 (centres undefined)
IC50 [12]: 1.75 µM (active)

CCNC(=O)C[C@H]1CC[C@@H]2[C@@H](COc3ccc(NC(=O)Nc4cccc(Cl)c4)cc3C(=O)N2C)O1
AC50 [13]: 42 µM (active)

COCC(=O)N(C)C[C@H]1Oc2cc(-c3ccccc3F)ccc2S(=O)(=O)N([C@H](C)CO)C[C@H]1C
AC50 [13]: 2.56 µM (active)

CCN(CC)CCOc1ccc(/C(=C(\Cl)c2ccccc2)c2ccccc2)cc1.O=C(O)CC(O)(CC(=O)O)C(=O)O [CLOMIPHENE CITRATE]
AC50 [14]: 3.79 µM (active)
AC50 [15]: 0.997 µM (active)
IC50 [12]: 10.8 µM (inactive)
IC50 [2]: > 20 µM (inactive)
AC50 [16]: inconclusive
EC50 [17]: 12.1 µM (active)
